Test results taken from US11208399B2, “NLRP3 inflammasome inhibitors” (Novartis AG, priority 2019, dated 2021).
Where a name gives a salt, the structure may show the parent alone.

Key:
NLRP3 inflammasome = test: IL-1β secretion assay in PMA-differentiated THP-1 cells, nigericin-activated (HTRF); assay type: cell-based; conditions: Homo sapiens, 15 μM nigericin, 3 hours, read-out: IL-1β IC50
Protocol: 10 μL supernatant was removed, and IL-1p levels were monitored using an HTRF assay (CisBio, #621L1PEC) according to manufacturers' instructions. Viability and pyroptosis was monitored with the addition of PrestoBlue cell viability reagent (Life Technologies, #A13261) directly to the cell culture plate.
(§1) IC50 values were calculated from the plot of percentage of inhibition versus the inhibitor concentration by a logistics fit according to: y=A2+(A1−A2)/(1+(x/IC50)^p) where y is the %-inhibition at the inhibitor concentration, x. A1 is the lowest inhibition value, i.e. 0%, and A2 the maximum inhibition value, i.e. 100%. The exponent, p, is the Hill coefficient. The curve fitting was conducted with an internally developed software suite.
NLRP3-dependent IL-1β secretion was stimulated in PMA-differentiated THP-1 cells by the addition of nigericin, and cytokines were measured in the […] after 3 hours. As discussed above, activation of the NLRP3 inflammasome requires both an NF-kB-dependent priming step and the addition of a NLRP3 activator.

[1] = tested on: NF-kB-dependent TNF-α secretion; test: TNF-α secretion assay in THP-1 cells (counter screen, HTRF); assay type: cell-based; conditions: Homo sapiens, Pam3CSK4-stimulated, 3 hours
Protocol: Monocytic THP-1 cells were maintained according to providers' instructions in RPMI media as described above. […] Experimental compounds were prepared and added as described above. TNF-α secretion was triggered by the addition of either 1 μg/mL LPS (Sigma, #L4391) or 100 ng/mL Pam3CSK4 (Invivogen, #tlrl-pms) depending on the experiment, and cells were incubated for 3 hours. 10 μL supernatant was removed, and TNF-α levels were monitored using an HTRF assay (CisBio, #62TNFPEC) according to manufacturers' instructions. Viability was monitored as described above.
as §1, with “suite. […]” for “suite.”

SMILES	IC50 (NLRP3 inflammasome) [nM]	IC50 [1] [nM]
Oc1cc(C(F)(F)F)cc(Cl)c1-c1ccc(N[C@H]2C[C@@H](O)C2)nn1 [Ex 31, 3-Chloro-2-(6-((cis-3-hydroxycyclobutyl)amino)pyridazin-3-yl)-5-(trifluoromethyl)phenol]	167	> 100000
Oc1cc(C(F)(F)F)cc(Cl)c1-c1ccc(N[C@H]2C[C@H](O)C2)nn1 [Ex 32, 3-Chloro-2-(6-((trans-3-hydroxycyclobutyl)amino)pyridazin-3-yl)-5-(trifluoromethyl)phenol]	218	85000
Cc1ncccc1CNc1ccc(-c2c(O)cc(C(F)(F)F)cc2Cl)nn1 [Ex 34, 3-Chloro-2-(6-(((2-methylpyridin-3-yl)methyl)amino)pyridazin-3-yl)-5-(trifluoromethyl)phenol]	496	> 100000
Cc1ncccc1CNc1ccc(-c2c(O)cc(Cl)cc2C(F)(F)F)nn1 [Ex 35, 5-Chloro-2-(6-(((2-methylpyridin-3-yl)methyl)amino)pyridazin-3-yl)-3-(trifluoromethyl)phenol]	243	> 100000
OCCNc1ccc(-c2c(O)cc(C(F)(F)F)cc2Cl)nn1 [Ex 37, 3-Chloro-2-(6-((2-hydroxyethyl)amino)pyridazin-3-yl)-5-(trifluoromethyl)phenol]	381	> 100000
Cc1cc(C(F)(F)F)cc(O)c1-c1ccc(Nc2cncnc2)nn1 [Ex 43, 3-Methyl-2-(6-(pyrimidin-5-ylamino)pyridazin-3-yl)-5-(trifluoromethyl)phenol]	281	25000
Cc1cc(C(F)(F)F)cc(O)c1-c1ccc(NC2(C)CCCN(C)C2)nn1 (stereo not drawn) [Ex 52, 2-(6-((1,3-Dimethylpiperidin-3-yl)amino)pyridazin-3-yl)-3-methyl-5-(trifluoromethyl)phenol TFA-salt]	186	> 100000
Cc1cc(-c2c(C)cc(C(F)(F)F)cc2O)nnc1N[C@H]1C[C@@](C)(O)C1 [Ex 54, 2-(6-(((cis)-3-Hydroxy-3-methylcyclobutyl)amino)-5-methylpyridazin-3-yl)-3-methyl-5-(trifluoromethyl)phenol]	11.8	35000
Cc1cc(N[C@H]2C[C@@](C)(O)C2)nnc1-c1ccc(C(F)(F)F)cc1O [Ex 55, 2-(6-(((cis)-3-Hydroxy-3-methylcyclobutyl)amino)-4-methylpyridazin-3-yl)-5-(trifluoromethyl)phenol]	45.8	45000
Cc1cc(C(F)(F)F)cc(O)c1-c1cc(C(F)(F)F)c(N[C@H]2C[C@@](C)(O)C2)nn1 [Ex 56, 2-(6-(((cis)-3-Hydroxy-3-methylcyclobutyl)amino)-5-(trifluoromethyl)pyridazin-3-yl)-3-methyl-5-(trifluoromethyl)phenol]	8.3	> 100000
Cc1cc(C(F)(F)F)cc(O)c1-c1ccc(N[C@H]2CCC[C@H](O)C2)nn1 [Ex 57, 2-(6-(((1S,3S)-3-Hydroxycyclohexyl)amino)pyridazin-3-yl)-3-methyl-5-(trifluoromethyl)phenol]	224	84000
Cc1cc(C(F)(F)F)cc(O)c1-c1ccc(N[C@@H]2CCC[C@@H](O)C2)nn1 [Ex 58, 2-(6-(((1R,3R)-3-Hydroxycyclohexyl)amino)pyridazin-3-yl)-3-methyl-5-(trifluoromethyl)phenol]	58.4	> 100000
Cc1cc(C(F)(F)F)cc(O)c1-c1ccc(N[C@@H]2CCCN(C)C2=O)nn1 [Ex 59, (R)-3-((6-(2-Hydroxy-6-methyl-4-(trifluoromethyl)phenyl)pyridazin-3-yl)amino)-1-methylpiperidin-2-one]	35.9	> 100000
Cc1cc(C(F)(F)F)cc(O)c1-c1ccc(NC[C@@H](F)C(C)(C)O)nn1 [Ex 60, (R)-2-(6-((2-Fluoro-3-hydroxy-3-methylbutyl)amino)pyridazin-3-yl)-3-methyl-5-(trifluoromethyl)phenol]	140	> 100000
Cc1cc(C(F)(F)F)cc(O)c1-c1ccc(N[C@@H]2CCC(=O)NC2)nn1 [Ex 61, (R)-5-((6-(2-Hydroxy-6-methyl-4-(trifluoromethyl)phenyl)pyridazin-3-yl)amino)piperidin-2-one]	65.8	> 100000
C[C@]1(O)C[C@@H](Nc2cc(C(F)(F)F)c(-c3ccc(C(F)(F)F)cc3O)nn2)C1 [Ex 66, 2-(6-(((cis)-3-Hydroxy-3-methylcyclobutyl)amino)-4-(trifluoromethyl)pyridazin-3-yl)-5-(trifluoromethyl)phenol]	187	> 33000
Cc1cc(C(F)(F)F)cc(O)c1-c1ccc(N[C@H]2C[C@](O)(C(F)(F)F)C2)nn1 [Ex 67, 2-(6-(((cis)-3-Hydroxy-3-(trifluoromethyl)cyclobutyl)amino)pyridazin-3-yl)-3-methyl-5-(trifluoromethyl)phenol]	40.1	46000
Cc1cc(N[C@H]2C[C@@](C)(O)C2)nnc1-c1ccc(Cl)cc1O [Ex 68, 5-Chloro-2-(6-(((cis)-3-hydroxy-3-methylcyclobutyl)amino)-4-methylpyridazin-3-yl)phenol]	89.3	> 100000
C[C@]1(O)C[C@@H](Nc2cc(C(F)(F)F)c(-c3ccc(Cl)cc3O)nn2)C1 [Ex 69, 5-Chloro-2-(6-(((cis)-3-hydroxy-3-methylcyclobutyl)amino)-4-(trifluoromethyl)pyridazin-3-yl)phenol]	431	> 33000
Cc1cc(-c2c(C)cc(C(F)(F)F)cc2O)nnc1NCC(C)(C)O [Ex 72, 2-(6-((2-Hydroxy-2-methylpropyl)amino)-5-methylpyridazin-3-yl)-3-methyl-5-(trifluoromethyl)phenol]	44.9	> 100000
Cc1cc(NCC(C)(C)O)nnc1-c1c(C)cc(C(F)(F)F)cc1O [Ex 73, 2-(6-((2-Hydroxy-2-methylpropyl)amino)-4-methylpyridazin-3-yl)-3-methyl-5-(trifluoromethyl)phenol]	154	55000
Cc1cc(C(F)(F)F)cc(O)c1-c1ccc(NC[C@@H]2C[C@H](F)CN2)nn1 [Ex 75, 2-(6-((((2S,4S)-4-Fluoropyrrolidin-2-yl)methyl)amino)pyridazin-3-yl)-3-methyl-5-(trifluoromethyl)phenol]	18.3	> 100000
Cc1cc(C(F)(F)F)cc(O)c1-c1ccc(NC[C@@H]2C[C@@H](F)CN2)nn1 [Ex 76, 2-(6-((((2S,4R)-4-Fluoropyrrolidin-2-yl)methyl)amino)pyridazin-3-yl)-3-methyl-5-(trifluoromethyl)phenol]	89.7	> 100000
Cc1cc(C(F)(F)F)cc(O)c1-c1ccc(NC[C@](C)(O)C(F)(F)F)nn1 [Ex 78, (S)-3-Methyl-2-(6-((3,3,3-trifluoro-2-hydroxy-2-methylpropyl)amino)pyridazin-3-yl)-5-(trifluoromethyl)phenol HCl-salt]	198	> 100000
Cc1cc(C(F)(F)F)cc(O)c1-c1ccc(NC(C)(C)CO)nn1 [Ex 79, 2-(6-((1-Hydroxy-2-methylpropan-2-yl)amino)pyridazin-3-yl)-3-methyl-5-(trifluoromethyl)phenol]	370	> 100000
Cc1cc(N[C@H]2C[C@@](C)(O)C2)nnc1-c1ccc(OC(F)(F)F)cc1O [Ex 81, 2-(6-(((cis)-3-Hydroxy-3-methylcyclobutyl)amino)-4-methylpyridazin-3-yl)-5-(trifluoromethoxy)phenol]	130	> 100000
Cc1cc(C(F)(F)F)cc(O)c1-c1ccc(N[C@@H]2CCCN3CCC[C@H]23)nn1 [Ex 83a, 3-Methyl-2-(6-(((8R,8aR)-octahydroindolizin-8-yl)amino)pyridazin-3-yl)-5-(trifluoromethyl) phenol]	0.8	> 100000
Cc1cc(C(F)(F)F)cc(O)c1-c1ccc(N[C@H]2CCCN3CCC[C@@H]23)nn1 [Ex 83b, 3-Methyl-2-(6-(((8S,8aS)-octahydroindolizin-8-yl)amino)pyridazin-3-yl)-5-(trifluoromethyl) phenol]	69.4	> 100000
Cc1cc(C(F)(F)F)cc(O)c1-c1ccc(NC[C@H]2CCCCN2CCO)nn1 [Ex 84a, (R)-2-(6-(((1-(2-Hydroxyethyl)piperidin-2-yl)methyl)amino)pyridazin-3-yl)-3-methyl-5-(trifluoromethyl)phenol]	42.5	> 100000
Cc1cc(C(F)(F)F)cc(O)c1-c1ccc(NC[C@@H]2CCCCN2CCO)nn1 [Ex 84b, (S)-2-(6-(((1-(2-Hydroxyethyl)piperidin-2-yl)methyl)amino)pyridazin-3-yl)-3-methyl-5-(trifluoromethyl)phenol]	53.3	> 33000
